# Experimental data as given in patent US7846434B2, “Materials and methods for improved immunoglycoproteins” (Trubion Pharmaceuticals, Inc., priority 2006, dated 2010).
# Several values for one entry are separate records, joined by “and”; a condition that tells them apart may be missing. Identical values can stand only once.
# Tests used:
# BJAB B cells = test: ADCC, 51Cr-labeled BJAB B cells with human PBMC effectors; type: cell-based
# Protocol: To determine the ADCC activity of purified TRU-016, labeled BJAB B cells were used as targets and human peripheral blood mononuclear cells (PBMC) as effector cells. BJAB B cells (10^7 cells) were labeled with 500 μCi/mL ^51Cr sodium chromate for 2 hours at 37° C. in IMDM/10% FBS. PBMCs were isolated from heparinized, human whole blood by fractionation over Lymphocyte Separation Media (LSM, ICN Biomedical) gradients. Reagent samples were added to RPMI media with 10% FBS and serial dilutions of each reagent were prepared. The ^51Cr labeled BJAB were added at 2×10^4 cells/well. The PBMCs were then added at 5×10^5 cells/well for a final ratio of 25:1 effectors (PBMC):targets (BJAB). Reactions were set up in quadruplicate wells of a 96 well plate. Reactions were allowed to proceed for 6 hours at 37° C. in 5% CO2 prior to harvesting and counting. CPM released was measured on a Packard TopCounNXT from 50 μl dried culture supernatant. Percent specific killing was calculated by subtracting (cpm [mean of quadruplicate samples] of sample−cpm spontaneous release)/(cpm maximal release−cpm spontaneous release)×100, and data were plotted as % specific killing versus TRU-016 concentration.
# [1] = test system: DG44 CHO cells transfected with TRU-016; test: Effect of castanospermine on DG44 CHO TRU-016 production, shake flasks; type: cell-based, Chinese hamster; settings: for Average TRU-016 Produced (ug/mL) ± SD: duplicate flasks
# Protocol: Prior to initiation of the experiments, DG44 CHO cells transfected with TRU-016 were grown in shake flasks in Ex-Cell™ 302 CHO serum-free media (SAFC Biosciences) supplemented with 1× non-essential amino acids (MediaTech), 1× sodium pyruvate (MediaTech), 4 mM L-glutamine (MediaTech), 500 nM methotrexate (MP Biomedicals) and 1 mg/L recombinant insulin (Recombulin-GIBCO/Invitrogen Corp.) at 37° C. and 5% carbon dioxide in a humidified incubator. A 200 mM stock concentration of castanospermine (Alexis Biochemicals) was prepared by dilution of the castanospermine in sterile, distilled/deionized water (MediaTech) and filtration through a 13 mm Acrodisc® with a 0.2 μm HT Tuffryn membrane (Pall Corporation). Stock solution was aliquoted into sterile, O-ringed, 0.5 mL microcentrifuge tubes (Fisherbrand, Fisher Scientific) and frozen at −20° C. Approximately 1 hour prior to initiation of experiments, needed aliquots were thawed at room temperature and the contents of each vial mixed well by vortexing.
# For each experiment, cells in log phase growth were seeded in the above medium into a total volume of 60 mL in 250 mL shaker flasks at a density of 200,000 cells/mL and CS added at the concentration to be tested. Final CS concentrations of 800 μM, 400 μM, 200 μM, 100 μM, 50 μM, 25 μM and 0 μM were each tested in duplicate flasks. All cultures were incubated at 37° C. and 5% carbon dioxide in a humidified incubator and monitored at least every other day for viable cell density and overall cell viability.
# Cultures were harvested on day 8 when overall cell viability was 50-70% (Expt. 1) and 30-50% (Expt. 2). Cells and cellular debris were removed by centrifugation in a Sorvall Super T21 at 3000 rpm for 20 minutes after which the supernatant was sterile filtered through a Millipore Steriflip unit with a 0.22 μm Millipore Express Plus membrane and stored at 2-8° C. until purification.
# CD37 = test: Binding of TRU-016 to CD37 expressing Daudi cells; parameters: species or system human
# Protocol: The cells are then incubated with a FITC-conjugated goat anti-human IgG Fc specific antibody (Caltag H10501). This antibody will bind to the Fc region of the human IgG chain of TRU-016 bound to the cells. The antibody is diluted 1:50 in FACS buffer and 100 μL is added to each well. The plate is incubated at 4° C. in the dark for 45 minutes. Any unbound FITC-labeled antibody is removed by adding 100 μL of FACS buffer to each well, centrifuging at 250×g for 3 minutes at 15° C. followed by removal of supernatant. This is followed by a second wash with 200 μL/well FACS buffer. The cells are resusupended with 200 μL/well 2% paraformaldehyde and stored at 4° C. overnight. Each sample's bound fluorescence is measured on a BD FACSCalibur flow cytometry system and analyzed using Cell Quest Pro software (Becton Dickinson, ver 5.2). The GeoMean fluorescence intensity for each sample is plotted relative to the TRU-016 concentration. A dose response curve is generated and fit to a 4-parameter logistic (4-PL) curve using the SoftMax Pro software (Molecular Devices, ver 5.0.1). Titrations of TRU-016 are utilized to create a dose response curve of the untreated control and CS treated samples for comparison.
compound,measurement,setting,value
O[C@H]1[C@H](O)[C@@H](O)CN2CC[C@H](O)[C@H]12 [castanospermine],ADCC activity of TRU-016 purified protein (% specific killing),"BJAB B cells; 0, 10, 25, 50, 100 or 200 μM castanospermine in culture media",dose-dependent increase
same,ADCC activity of TRU-015 purified protein (% specific killing),"BJAB B cells; 0-100 μg/mL castanospermine in culture media, PBMC from high affinity (V/V158) and low affinity (F/F158) CD16 donors",dose-dependent increase
same,ADCC of TRU-016 purified protein (% specific killing),"BJAB B cells; culture media containing 200 μM DMJ, 10 μM kifenunsine or 200 μM castanospermine",improved
same,Average TRU-016 Produced (ug/mL) ± SD,[1]; CS 25 μM,180.31 ± 6.6 µg/mL
same,ICA (Integral Cell Area),"[1]; CS 25 μM, listed as CS",21.4 10^6 cells * days/mL and 21.1 10^6 cells * days/mL
same,Specific Productivity,"[1]; CS 25 μM, listed as CS",8.22 pg/cell/day and 8.78 pg/cell/day
same,Average TRU-016 Produced (ug/mL) ± SD,[1]; CS 50 μM,176.63 ± 1.0 µg/mL
same,ICA (Integral Cell Area),"[1]; CS 50 μM, listed as CS",21.6 10^6 cells * days/mL and 21.4 10^6 cells * days/mL
same,Specific Productivity,"[1]; CS 50 μM, listed as CS",8.15 pg/cell/day and 8.27 pg/cell/day
same,ICA (Integral Cell Area),[1]; CS 100 μM,21.6 10^6 cells * days/mL
same,Average TRU-016 Produced (ug/mL) ± SD,[1]; CS 100 μM,161.83 ± 0.1 µg/mL
same,Specific Productivity,"[1]; CS 100 μM, listed as CS",7.48 pg/cell/day and 7.49 pg/cell/day
same,Average TRU-016 Produced (ug/mL) ± SD,[1]; CS 200 μM,143.53 ± 1.4 µg/mL
same,ICA (Integral Cell Area),"[1]; CS 200 μM, listed as CS",21.9 10^6 cells * days/mL and 22.0 10^6 cells * days/mL
same,Specific Productivity,"[1]; CS 200 μM, listed as CS",6.60 pg/cell/day and 6.47 pg/cell/day
same,Specific Productivity,[1]; CS 400 μM,5.48 pg/cell/day
same,Average TRU-016 Produced (ug/mL) ± SD,[1]; CS 400 μM,124.93 ± 1.4 µg/mL
same,ICA (Integral Cell Area),"[1]; CS 400 μM, listed as CS",23.0 10^6 cells * days/mL and 22.4 10^6 cells * days/mL
same,Specific Productivity,"[1]; CS 400 μM, listed as CS",5.53 pg/cell/day
same,Average TRU-016 Produced (ug/mL) ± SD,[1]; CS 800 μM,99.65 ± 6.1 µg/mL
same,ICA (Integral Cell Area),"[1]; CS 800 μM, listed as CS",23.9 10^6 cells * days/mL and 23.8 10^6 cells * days/mL
same,Specific Productivity,"[1]; CS 800 μM, listed as CS",3.99 pg/cell/day and 4.36 pg/cell/day
same,cell viability and growth (integral cell area),[1]; CS 25-800 μM,did not appear to be significantly affected
same,binding of TRU-016 to CD37 expressing cells (dose response curves),CD37; CHO-K1 produced glycovariants vs control,did not alter
same,binding of TRU-016 to CD37 expressing cells (dose response curves),"CD37; DG44 CHO produced, all CS treated samples vs untreated",did not alter
